From PubChem BioAssay AID1963435 (Molecular Pharmacology Branch, DTP, NCI, 2024)

Tested on: PANC-1 complex spheroid growth, percent test/control
Assay: Anticancer human tumor PANC-1 cell line growth inhibition [Asc];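 further: spheroids exposed to agents for 7 days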;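 on viability, T/C: percent viability relative to DMSO vehicle wells taken as 100%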
Conditions: for IC50: curve of first compound; for viability, T/C: stronger effect = lower value; active means viability on the fitted dose curve at most 10% of control; inactive means the rest
In short: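 Spheroid model: tumor line + HUVEC + hMSC. Single agents and combinations; top conc. at/near clinical Cmax (10 microM if undetermined), half-log dilutions. DMSO stocks at 800-fold test concentration.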

C#Cc1c(F)ccc2cc(O)cc(-c3ncc4c(N5CC6CCC(C5)N6)nc(OCC56CCCN5CC(F)C6)nc4c3F)c12 (centres undefined) + Cc1c(S(C)(=O)=O)c(-c2cc(F)cc(N3CCN(c4ccc(NS(=O)(=O)c5ccc(NC(CCN6CCC(C(=O)OCCCP(=O)(O)O)CC6)CSc6ccccc6)c(S(=O)(=O)C(F)(F)F)c5)cc4)CC3)c2)c(-c2ccc(Cl)cc2)n1C(C)C
> 10 µM: IC50 (second compound 0.0316 µM) | IC50 (second compound 0.1 µM) | IC50 (second compound 0.316 µM) | IC50 (second compound 1 µM) | IC50 (second compound 3.16 µM) | IC50 (second compound 10 µM)
inactive: viability, T/C (second compound 0.0316 µM, first compound 0.0316 µM) 86.6% | viability, T/C (second compound 0.0316 µM, first compound 0.1 µM) 84% | viability, T/C (second compound 0.0316 µM, first compound 0.316 µM) 81.4% | viability, T/C (second compound 0.0316 µM, first compound 1 µM) 87.2% | viability, T/C (second compound 0.0316 µM, first compound 3.16 µM) 83.5% | viability, T/C (second compound 0.0316 µM, first compound 10 µM) 72.6% | viability, T/C (second compound 0.1 µM, first compound 0.0316 µM) 84.6% | viability, T/C (second compound 0.1 µM, first compound 0.1 µM) 80.2% | viability, T/C (second compound 0.1 µM, first compound 0.316 µM) 74.8% | viability, T/C (second compound 0.1 µM, first compound 1 µM) 80.9% | viability, T/C (second compound 0.1 µM, first compound 3.16 µM) 78% | viability, T/C (second compound 0.1 µM, first compound 10 µM) 75.3% | viability, T/C (second compound 0.316 µM, first compound 0.0316 µM) 88.7% | viability, T/C (second compound 0.316 µM, first compound 0.1 µM) 77.5% | viability, T/C (second compound 0.316 µM, first compound 0.316 µM) 76.2% | viability, T/C (second compound 0.316 µM, first compound 1 µM) 74% | viability, T/C (second compound 0.316 µM, first compound 3.16 µM) 88.2% | viability, T/C (second compound 0.316 µM, first compound 10 µM) 69.8% | viability, T/C (second compound 1 µM, first compound 0.0316 µM) 80.2% | viability, T/C (second compound 1 µM, first compound 0.1 µM) 75.6% | viability, T/C (second compound 1 µM, first compound 0.316 µM) 72.6% | viability, T/C (second compound 1 µM, first compound 1 µM) 67.4% | viability, T/C (second compound 1 µM, first compound 3.16 µM) 73.7% | viability, T/C (second compound 1 µM, first compound 10 µM) 55.3% | viability, T/C (second compound 3.16 µM, first compound 0.0316 µM) 72.4% | viability, T/C (second compound 3.16 µM, first compound 0.1 µM) 62.9% | viability, T/C (second compound 3.16 µM, first compound 0.316 µM) 59.9% | viability, T/C (second compound 3.16 µM, first compound 1 µM) 60.1% | viability, T/C (second compound 3.16 µM, first compound 3.16 µM) 59% | viability, T/C (second compound 3.16 µM, first compound 10 µM) 56.8% | viability, T/C (second compound 10 µM, first compound 0.0316 µM) 114% | viability, T/C (second compound 10 µM, first compound 0.1 µM) 103% | viability, T/C (second compound 10 µM, first compound 0.316 µM) 101% | viability, T/C (second compound 10 µM, first compound 1 µM) 85.5% | viability, T/C (second compound 10 µM, first compound 3.16 µM) 84.9% | viability, T/C (second compound 10 µM, first compound 10 µM) 67.9%

Cc1nc(N2CCC3(CC2)COC(C)C3N)c(CO)nc1Sc1ccnc(N)c1Cl (centres undefined) + Cc1c(S(C)(=O)=O)c(-c2cc(F)cc(N3CCN(c4ccc(NS(=O)(=O)c5ccc(NC(CCN6CCC(C(=O)OCCCP(=O)(O)O)CC6)CSc6ccccc6)c(S(=O)(=O)C(F)(F)F)c5)cc4)CC3)c2)c(-c2ccc(Cl)cc2)n1C(C)C
inactive: viability, T/C (second compound 0.0316 µM, first compound 0.00949 µM) 87.6% | viability, T/C (second compound 0.0316 µM, first compound 0.03 µM) 96.6% | viability, T/C (second compound 0.0316 µM, first compound 0.0949 µM) 88.2% | viability, T/C (second compound 0.0316 µM, first compound 0.3 µM) 94.1% | viability, T/C (second compound 0.0316 µM, first compound 0.949 µM) 89.5% | viability, T/C (second compound 0.0316 µM, first compound 3 µM) 95.2% | viability, T/C (second compound 0.1 µM, first compound 0.00949 µM) 92.8% | viability, T/C (second compound 0.1 µM, first compound 0.03 µM) 88.3% | viability, T/C (second compound 0.1 µM, first compound 0.0949 µM) 83.3% | viability, T/C (second compound 0.1 µM, first compound 0.3 µM) 90.1% | viability, T/C (second compound 0.1 µM, first compound 0.949 µM) 87.8% | viability, T/C (second compound 0.1 µM, first compound 3 µM) 84.7% | viability, T/C (second compound 0.316 µM, first compound 0.00949 µM) 103% | viability, T/C (second compound 0.316 µM, first compound 0.03 µM) 93.4% | viability, T/C (second compound 0.316 µM, first compound 0.0949 µM) 89.8% | viability, T/C (second compound 0.316 µM, first compound 0.3 µM) 87.6% | viability, T/C (second compound 0.316 µM, first compound 0.949 µM) 91.8% | viability, T/C (second compound 0.316 µM, first compound 3 µM) 86.7% | viability, T/C (second compound 1 µM, first compound 0.00949 µM) 102% | viability, T/C (second compound 1 µM, first compound 0.03 µM) 91.8% | viability, T/C (second compound 1 µM, first compound 0.0949 µM) 85.9% | viability, T/C (second compound 1 µM, first compound 0.3 µM) 84.5% | viability, T/C (second compound 1 µM, first compound 0.949 µM) 88.2% | viability, T/C (second compound 1 µM, first compound 3 µM) 85.5% | viability, T/C (second compound 3.16 µM, first compound 0.00949 µM) 101% | viability, T/C (second compound 3.16 µM, first compound 0.03 µM) 94.5% | viability, T/C (second compound 3.16 µM, first compound 0.0949 µM) 86.2% | viability, T/C (second compound 3.16 µM, first compound 0.3 µM) 92.9% | viability, T/C (second compound 3.16 µM, first compound 0.949 µM) 84.6% | viability, T/C (second compound 3.16 µM, first compound 3 µM) 77.8% | viability, T/C (second compound 10 µM, first compound 0.00949 µM) 175% | viability, T/C (second compound 10 µM, first compound 0.03 µM) 177% | viability, T/C (second compound 10 µM, first compound 0.0949 µM) 161% | viability, T/C (second compound 10 µM, first compound 0.3 µM) 161% | viability, T/C (second compound 10 µM, first compound 0.949 µM) 164% | viability, T/C (second compound 10 µM, first compound 3 µM) 147%
> 3 µM: IC50 (second compound 0.0316 µM) | IC50 (second compound 0.1 µM) | IC50 (second compound 0.316 µM) | IC50 (second compound 1 µM) | IC50 (second compound 3.16 µM) | IC50 (second compound 10 µM)
